Experiments:
[1] = test system: participants with Raynaud's Phenomenon secondary mostly to systemic sclerosis (SSc-RP); assay: Frequency of weekly symptomatic RP attacks (patient diary), Phase 2a study Part A; type: in vivo, human
Protocol: A randomized, placebo-controlled phase 2a study was performed and is in progress to assess the safety and efficacy of cilnidipine (10 mg and 20 mg) alone and in combination with 5 mg tadalafil, in participants with diagnosis of scleroderma and/or secondary Raynaud's disease.
The relevant metrics measured by this tool daily are: • Study medication • SSc-RP symptoms (Reporting an attack including duration of attack) • Severity of the attack considering all symptoms of the attack e.g., tingling, numbness, pain, color changes (VAS 0-10 cm scale) • Participant's location at the time of the attack (inside home/outside home) • Selecting symptoms experienced during the attack (tingling, numbness, pain, color changes, other) • Pain rating during the attack (11-point Likert scale) • The RCS based on how much difficulty participants had with Raynaud's today, how many attacks the participant had, and how long they lasted. Participants will also be asked to consider how much pain, numbness, or other symptoms the Raynaud's caused in fingers (including painful sores), and how much the Raynaud's alone affected the use of hands today (VAS 0-10 cm scale).
Percent change from baseline evaluation for frequency of weekly RP attacks were or will be used as the primary efficacy variable. The sponsor-developed participant-informed diary will be used to record data. Frequency of weekly RP attacks is defined as the total number of RP attacks divided by the number of days with available diary data within the last 7 days of each dosing period then multiplied by 7. Total number of RP attacks during the last 7 days of screening period divided by the number of days with available data then multiplied by 7 will be used as baseline for the analysis of all periods. The variable will be calculated as follows:
Percentage change={(weekly RP attacks for the last 7 days of each dosing period−Baseline weekly RP attacks)/Baseline weekly RP attacks}*100%.
Absolute change=weekly RP attacks for the last 7 days of each dosing period−Baseline weekly RP attacks
Percent change from baseline evaluation for frequency of weekly RP attacks was and will be the primary efficacy endpoint. Frequency of weekly RP attacks is defined as the total number of RP attacks divided by the number of days with available diary data within the last 7 days of each dosing period then multiplied by 7. Total number of RP attacks during the last 7 days of screening period divided by the number of days with available data then multiplied by 7 will be used as baseline for the analysis of all periods.
The following data was actually obtained in accordance with the protocol and plan delineated in Examples 1 and 2. The accompanying data involved 11 patients out of the planned 76 patient study. The study was done in patients with scleroderma (systemic sclerosis) who had relatively frequent Raynaud symptoms as they needed to average at least one attack per day during a screening period of up to two weeks. In this first phase of this double-blind placebo-controlled, prospective randomized study, patients were treated in parallel and after meeting study criteria were randomized to receive either placebo, cilnidipine 10 mg daily, cilnidipine 20 mg daily, tadalafil 5 mg daily, cilnidipine 10 mg plus 5 mg of tadalafil, or cilnidipine 20 mg plus 5 mg of tadalafil.

[2] = 10 mg Cilnidipine, Healthy Volunteers, single oral dose; cited from earlier work
[3] = Pooled Cilnidipine 20 mg and Cilnidipine 20 mg + Tadalafil 5 mg, n 4, Excluding Outliers, ITT Part A
[4] = Pooled Cilnidipine (N = 3), ITT Part A
[5] = Pooled Cilnidipine, n 3, Excluding Outliers, ITT Part A
[6] = Pooled Cilnidipine, n 3, by Baseline RCS, 1st block (RCS <5.0), ITT Part A
[7] = all cilnidipine and cilnidipine plus tadalafil treated patients (n=7)
[8] = excluding outliers, by baseline RCS, first subgroup, cilnidipine 10 mg, tadalafil 5 mg daily
[9] = excluding outliers, by baseline RCS, first subgroup, cilnidipine 20 mg, tadalafil 5 mg daily
[10] = excluding outliers, by baseline RCS, first subgroup, pooled cilnidipine 10 mg and 20 mg, tadalafil 5 mg daily

COCCOC(=O)C1=C(C)NC(C)=C(C(=O)OC/C=C/c2ccccc2)C1c1cccc([N+](=O)[O-])c1 (centres unmarked) [Cilnidipine, cilnidipine]
Weekly Symptomatic RP Attacks Percent Change from Baseline, Mean (SD) [1, 3]: −25.00 (14.410) %
Weekly Symptomatic RP Attacks Percent Change from Baseline, Median [1, 3]: −28.17%
Weekly Symptomatic RP Attacks, Mean (SD) [1, 3]: 9.75 (3.403)
Weekly Symptomatic RP Attacks, Median [1, 3]: 10.50
Weekly Symptomatic RP Attacks Change from Baseline, Mean [1, 4]: −5.33
Weekly Symptomatic RP Attacks Change from Baseline, Median [1, 4]: −7.00
Weekly Symptomatic RP Attacks Percent Change from Baseline, Mean [1, 4]: −33.60%
Weekly Symptomatic RP Attacks Percent Change from Baseline, Median [1, 4]: −33.33%
Weekly Symptomatic RP Attacks, Mean [1, 4]: 10.00
Weekly Symptomatic RP Attacks, Median [1, 4]: 11.00
Weekly Symptomatic RP Attacks Change from Baseline, Mean (SD) [1, 5]: −5.33 (2.887)
Weekly Symptomatic RP Attacks Change from Baseline, Median [1, 5]: −7.00
Weekly Symptomatic RP Attacks Percent Change from Baseline, Mean (SD) [1, 5]: −33.60 (5.164) %
Weekly Symptomatic RP Attacks Percent Change from Baseline, Median [1, 5]: −33.33%
Weekly Symptomatic RP Attacks, Mean (SD) [1, 5]: 10.00 (4.583)
Weekly Symptomatic RP Attacks, Median [1, 5]: 11.00
Weekly Symptomatic RP Attacks Change from Baseline, Mean (SD) [1, 6]: −5.33 (2.887)
Weekly Symptomatic RP Attacks Change from Baseline, Median [1, 6]: −7.00
Weekly Symptomatic RP Attacks Percent Change from Baseline, Mean (SD) [1, 6]: −33.60 (5.164) %
Weekly Symptomatic RP Attacks Percent Change from Baseline, Median [1, 6]: −33.33%
Weekly Symptomatic RP Attacks, Mean (SD) [1, 6]: 10.00 (4.583)
Weekly Symptomatic RP Attacks, Median [1, 6]: 11.00
patients in whom the average frequency of Raynaud's attacks decreased more than 25% [1, 7]: 6 of 7
weekly frequency of Raynaud attacks, direction of change [1, 7]: decrease
reduction in the weekly frequency of attacks, range ([1]; baseline RCS <5.0, all cilnidipine and cilnidipine plus tadalafil treated patients (n=5)): 28%-44%
Weekly Symptomatic RP Attacks Change from Baseline, Max [1, 8]: −7.0, −7.0
Weekly Symptomatic RP Attacks Change from Baseline, Mean (SD) [1, 8]: −7.00
Weekly Symptomatic RP Attacks Change from Baseline, Median [1, 8]: −7.00
Weekly Symptomatic RP Attacks Change from Baseline, Min [1, 8]: −7.0, −7.0
Weekly Symptomatic RP Attacks Change from Baseline, Q1 [1, 8]: −7.00, −7.00
Weekly Symptomatic RP Attacks Change from Baseline, Q3 [1, 8]: −7.00, −7.00
Weekly Symptomatic RP Attacks Percent Change from Baseline, Max [1, 8]: −33.3, −33.3%
Weekly Symptomatic RP Attacks Percent Change from Baseline, Mean (SD) [1, 8]: −33.33%
Weekly Symptomatic RP Attacks Percent Change from Baseline, Median [1, 8]: −33.33%
Weekly Symptomatic RP Attacks Percent Change from Baseline, Min [1, 8]: −33.3, −33.3%
Weekly Symptomatic RP Attacks Percent Change from Baseline, Q1 [1, 8]: −33.33, −33.33%
Weekly Symptomatic RP Attacks Percent Change from Baseline, Q3 [1, 8]: −33.33, −33.33%
Weekly Symptomatic RP Attacks, Max [1, 8]: 14.0, 14.0
Weekly Symptomatic RP Attacks, Mean (SD) [1, 8]: 14.00
Weekly Symptomatic RP Attacks, Median [1, 8]: 14.00
Weekly Symptomatic RP Attacks, Min [1, 8]: 14.0, 14.0
Weekly Symptomatic RP Attacks, Q1 [1, 8]: 14.00, 14.00
Weekly Symptomatic RP Attacks, Q3 [1, 8]: 14.00, 14.00
Weekly Symptomatic RP Attacks Change from Baseline, Max [1, 9]: −2.0
Weekly Symptomatic RP Attacks Change from Baseline, Mean (SD) [1, 9]: −4.50 (3.536)
Weekly Symptomatic RP Attacks Change from Baseline, Median [1, 9]: −4.50
Weekly Symptomatic RP Attacks Change from Baseline, Min [1, 9]: −7.0
Weekly Symptomatic RP Attacks Change from Baseline, Q1 [1, 9]: −7.00
Weekly Symptomatic RP Attacks Change from Baseline, Q3 [1, 9]: −2.00
Weekly Symptomatic RP Attacks Percent Change from Baseline, Max [1, 9]: −28.6%
Weekly Symptomatic RP Attacks Percent Change from Baseline, Mean (SD) [1, 9]: −33.73 (7.296) Percent
Weekly Symptomatic RP Attacks Percent Change from Baseline, Median [1, 9]: −33.73%
Weekly Symptomatic RP Attacks Percent Change from Baseline, Min [1, 9]: −38.9%
Weekly Symptomatic RP Attacks Percent Change from Baseline, Q1 [1, 9]: −38.89%
Weekly Symptomatic RP Attacks Percent Change from Baseline, Q3 [1, 9]: −28.57%
Weekly Symptomatic RP Attacks, Max [1, 9]: 11.0
Weekly Symptomatic RP Attacks, Mean (SD) [1, 9]: 8.00 (4.243)
Weekly Symptomatic RP Attacks, Median [1, 9]: 8.00
Weekly Symptomatic RP Attacks, Min [1, 9]: 5.0
Weekly Symptomatic RP Attacks, Q1 [1, 9]: 5.00
Weekly Symptomatic RP Attacks, Q3 [1, 9]: 11.00
Weekly Symptomatic RP Attacks Change from Baseline, Max [1, 10]: −2.0
Weekly Symptomatic RP Attacks Change from Baseline, Mean (SD) [1, 10]: −5.33 (2.887)
Weekly Symptomatic RP Attacks Change from Baseline, Median [1, 10]: −7.00
Weekly Symptomatic RP Attacks Change from Baseline, Min [1, 10]: −7.0
Weekly Symptomatic RP Attacks Change from Baseline, Q1 [1, 10]: −7.00
Weekly Symptomatic RP Attacks Change from Baseline, Q3 [1, 10]: −2.00
Weekly Symptomatic RP Attacks Percent Change from Baseline, Max [1, 10]: −28.6%
Weekly Symptomatic RP Attacks Percent Change from Baseline, Mean (SD) [1, 10]: −33.60 (5.164) Percent
Weekly Symptomatic RP Attacks Percent Change from Baseline, Median [1, 10]: −33.33%
Weekly Symptomatic RP Attacks Percent Change from Baseline, Min [1, 10]: −38.9%
Weekly Symptomatic RP Attacks Percent Change from Baseline, Q1 [1, 10]: −38.89%
Weekly Symptomatic RP Attacks Percent Change from Baseline, Q3 [1, 10]: −28.57%
Weekly Symptomatic RP Attacks, Max [1, 10]: 14.0
Weekly Symptomatic RP Attacks, Mean (SD) [1, 10]: 10.00 (4.583)
Weekly Symptomatic RP Attacks, Median [1, 10]: 11.00
Weekly Symptomatic RP Attacks, Min [1, 10]: 5.0
Weekly Symptomatic RP Attacks, Q1 [1, 10]: 5.00
Weekly Symptomatic RP Attacks, Q3 [1, 10]: 14.00
CL/F, Mean [2]: 304.7 L/h

— patent US20240358693A1, “METHODS OF TREATING PAIN” (Aisa Pharma, Inc., priority 2023, published 2024)
